# Test system: Mycobacterium tuberculosis variant bovis
# Assay: Antimicrobial activity against Mycobacterium bovis after 1 to 5 days by two-fold dilution
# Format: functional, organism-based
smiles,measurement,value
FC(F)(F)Oc1cccc(CNCCNC2C3CC4CC(C3)C2C4)c1 (stereo unspecified),IC50,1250 nM

# — ChEMBL document CHEMBL4414576, “Recent advancements in mechanistic studies and structure activity relationship of FoF1 ATP synthase inhibitor as antimicrobial agent” (Eur J Med Chem, 2019)
